In patent publication US20170137426A1, “HETEROCYCLIC COMPOUNDS AS AXL INHIBITORS” (CHANGZHOU JIEKAI PHARMATECH CO., LTD., priority 2014, published 2017):

Target: T1, human AXL (Homo sapiens, UniProt P30530)
T1 construct: his-tagged catalytic domain (amino acids 473-894) from insect cells; His tag; purchased Invitrogen PV3971; host or cells: insect cells
T1 sequence (P30530 473-894): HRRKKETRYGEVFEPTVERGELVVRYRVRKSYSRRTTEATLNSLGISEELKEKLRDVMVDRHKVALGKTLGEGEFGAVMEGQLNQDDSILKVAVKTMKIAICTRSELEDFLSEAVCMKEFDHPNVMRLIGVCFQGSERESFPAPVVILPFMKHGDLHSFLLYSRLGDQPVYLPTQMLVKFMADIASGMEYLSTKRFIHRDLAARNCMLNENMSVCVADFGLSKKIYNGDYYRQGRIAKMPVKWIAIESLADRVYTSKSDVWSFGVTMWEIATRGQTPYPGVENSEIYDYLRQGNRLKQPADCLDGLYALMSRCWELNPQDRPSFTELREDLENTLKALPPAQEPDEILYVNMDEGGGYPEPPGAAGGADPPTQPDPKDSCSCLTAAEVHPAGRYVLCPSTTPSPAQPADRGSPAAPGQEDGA
Test: AXL enzymatic assay (LanthaScreen TR-FRET)
Assay type: biochemical
Details: recombinant his-tagged catalytic domain (aa 473-894), 18 μM ATP (around Km), 200 nM Poly GT substrate, 1 h reaction
Procedure: Example 3: AXL Enzymatic Assay
Compounds were tested in a LanthaScreen™ time-resolved fluorescence energy transfer (TR-FRET) enzymatic assay from Invitrogen. The assay used human AXL (Invitrogen, Cat. PV3971) recombinantly expressed his-tagged catalytic domain (amino acids 473-894) from insect cells. The substrate was fluorescein-labeled Poly GT (Invitrogen, Cat. PV3610). Test compounds were prepared and diluted in DMSO in 3-fold serial dilutions to 100× of the final testing concentrations. The compounds were then further diluted to 4× by the kinase reaction buffer (Invitrogen, Cat. PV3189). The enzymatic reaction for compound testing was performed in a white 384-well polypropylene plate (Packard, Cat. 6005214) with a total reaction volume of 10 μl containing 200 ng/ml AXL, 200 nM substrate, and 18 μM ATP that is around its Km. The assay started with loading 2.5 μl of AXL diluted in kinase reaction buffer to wells, followed by addition of equal volume of 4× compounds for 15-min incubation at the room temperature for pre-treatment. The enzymatic reaction was initiated by addition of 5 μl of mixture of the substrate and ATP prepared in kinase reaction buffer. After one hour reaction, 10 μl mixture of EDTA (final 10 mM) and terbium-labeled anti-PY20 antibody (final 2 nM) (Invitrogen, Cat. PV3552) prepared in TR-FRET antibody dilution buffer (Invitrogen, Cat. PV3574) was added to stop the enzymatic reaction and produce TR-FRET signals. After 30 minutes of incubation at room temperature, the plate was read in Tecan Infinite F200 Pro with the following settings: Excitation 340 nm (30)/Emission1 495 nm (10)/Emission2 520 nm (25). The TR-FRET values were dimensionless numbers that were calculated as the ratio of the acceptor ([…]) signal to the donor (Terbium) signal. Percent of control was calculated as the percentage of compound-treated vs 1% DMSO vehicle-treated. The dose-response curves were generated and the IC50s were calculated by nonlinear sigmoid curve fitting using GraphPad Prism.

| IC50 [nM] | Structure (SMILES) |
| --- | --- |
| 25 to 50 | CC(C)Oc1ccccc1-n1ccc2cnc(Nc3ccc4c(c3)CCC(N3CCCC3)CC4)nc21 (stereo not drawn) [Compound 1, 7-(2-isopropoxyphenyl)-N-(7-(pyrrolidin-1-yl)-6,7,8,9-tetrahydro-5H-benzo[7]annulen-2-yl)-7H-pyrrolo[2,3-d]pyrimidin-2-amine] |
| 50 to 200 | CC(C)Oc1cccc(-n2ccc3cnc(Nc4ccc5c(c4)CCC(N4CCCC4)CC5)nc32)c1 (stereo not drawn) [Compound 3, 7-(3-isopropoxyphenyl)-N-(7-(pyrrolidin-1-yl)-6,7,8,9-tetrahydro-5H-benzo[7]annulen-2-yl)-7H-pyrrolo[2,3-d]pyrimidin-2-amine] |
| < 25 | CC(C)Oc1cc(Cl)ccc1-n1ccc2cnc(Nc3ccc4c(c3)CCC(N3CCCC3)CC4)nc21 (stereo not drawn) [Compound 10, 7-(4-chloro-2-isopropoxyphenyl)-N-(7-(pyrrolidin-1-yl)-6,7,8,9-tetrahydro-5H-benzo[7]annulen-2-yl)-7H-pyrrolo[2,3-d]pyrimidin-2-amine] |
| > 1000 | CC(C)NC(=O)c1ccccc1-n1ccc2cnc(Nc3ccc4c(c3)CCC(N3CCCC3)CC4)nc21 (stereo not drawn) [Compound 11, N-isopropyl-2-(2-((7-(pyrrolidin-1-yl)-6,7,8,9-tetrahydro-5H-benzo[7]annulen-2-yl)amino)-7H-pyrrolo[2,3-d]pyrimidin-7-yl)benzamide] |
| 25 to 50 | Cc1ccccc1-c1ccc(-n2ccc3cnc(Nc4ccc5c(c4)CCC(N4CCCC4)CC5)nc32)cc1 (stereo not drawn) [Compound 12, 7-(2′-methyl-[1,1′-biphenyl]-4-yl)-N-(7-(pyrrolidin-1-yl)-6,7,8,9-tetrahydro-5H-benzo[7]annulen-2-yl)-7H-pyrrolo[2,3-d]pyrimidin-2-amine] |
| 200 to 400 | CC(C)Oc1cccnc1-n1ccc2cnc(Nc3ccc4c(c3)CCC(N3CCCC3)CC4)nc21 (stereo not drawn) [Compound 13, 7-(3-isopropoxypyridin-2-yl)-N-(7-(pyrrolidin-1-yl)-6,7,8,9-tetrahydro-5H-benzo[7]annulen-2-yl)-7H-pyrrolo[2,3-d]pyrimidin-2-amine] |
| 200 to 400 | CC(C)Oc1cc(-c2ccccc2)ccc1-n1ccc2cnc(Nc3ccc4c(c3)CCC(N3CCCC3)CC4)nc21 (stereo not drawn) [Compound 14, 7-(3-isopropoxy-[1,1′-biphenyl]-4-yl)-N-(7-(pyrrolidin-1-yl)-6,7,8,9-tetrahydro-5H-benzo[7]annulen-2-yl)-7H-pyrrolo[2,3-d]pyrimidin-2-amine] |

The remaining lines, values behind:

| Structure (SMILES) | IC50 [nM] |
| --- | --- |
| CC(C)Oc1ccccc1-n1ccc2cnc(Nc3cnn(C4CCN(C)CC4)c3)nc21 [Compound 2, 7-(2-isopropoxyphenyl)-N-(1-(1-methylpiperidin-4-yl)-1H-pyrazol-4-yl)-7H-pyrrolo[2,3-d]pyrimidin-2-amine] | 700 to 800 |
| c1ccc(-n2ccc3cnc(Nc4ccc5c(c4)CCC(N4CCCC4)CC5)nc32)c(OC2CCCCC2)c1 (stereo not drawn) [Compound 4, 7-(2-(cyclohexyloxy)phenyl)-N-(7-(pyrrolidin-1-yl)-6,7,8,9-tetrahydro-5H-benzo[7]annulen-2-yl)-7H-pyrrolo[2,3-d]pyrimidin-2-amine] | 200 to 400 |
| c1ccc(Oc2ccccc2-n2ccc3cnc(Nc4ccc5c(c4)CCC(N4CCCC4)CC5)nc32)cc1 (stereo not drawn) [Compound 5, 7-(2-phenoxyphenyl)-N-(7-(pyrrolidin-1-yl)-6,7,8,9-tetrahydro-5H-benzo[7]annulen-2-yl)-7H-pyrrolo[2,3-d]pyrimidin-2-amine] | 700 to 800 |
| Cc1ccccc1Oc1ccccc1-n1ccc2cnc(Nc3ccc4c(c3)CCC(N3CCCC3)CC4)nc21 (stereo not drawn) [Compound 6, N-(7-(pyrrolidin-1-yl)-6,7,8,9-tetrahydro-5H-benzo[7]annulen-2-yl)-7-(2-(o-tolyloxy)phenyl)-7H-pyrrolo[2,3-d]pyrimidin-2-amine] | < 25 |
| CC(C)Oc1ccc(-n2ccc3cnc(Nc4ccc5c(c4)CCC(N4CCCC4)CC5)nc32)cc1 (stereo not drawn) [Compound 7, 7-(4-isopropoxyphenyl)-N-(7-(pyrrolidin-1-yl)-6,7,8,9-tetrahydro-5H-benzo[7]annulen-2-yl)-7H-pyrrolo[2,3-d]pyrimidin-2-amine] | 25 to 50 |
| c1ccc(-c2ccc(-n3ccc4cnc(Nc5ccc6c(c5)CCC(N5CCCC5)CC6)nc43)cc2)cc1 (stereo not drawn) [Compound 8, 7-([1,1′-biphenyl]-4-yl)-N-(7-(pyrrolidin-1-yl)-6,7,8,9-tetrahydro-5H-benzo[7]annulen-2-yl)-7H-pyrrolo[2,3-d]pyrimidin-2-amine] | > 1000 |
| COc1ccc(-n2ccc3cnc(Nc4ccc5c(c4)CCC(N4CCCC4)CC5)nc32)c(OC(C)C)c1 (stereo not drawn) [Compound 9, 7-(2-isopropoxy-4-methoxyphenyl)-N-(7-(pyrrolidin-1-yl)-6,7,8,9-tetrahydro-5H-benzo[7]annulen-2-yl)-7H-pyrrolo[2,3-d]pyrimidin-2-amine] | 50 to 200 |
| CC(C)Oc1ccccc1-n1ccc2cnc(Nc3ccc4c(c3)CCN(C)CC4)nc21 [Compound 15, N-(7-(2-isopropoxyphenyl)-7H-pyrrolo[2,3-d]pyrimidin-2-yl)-3-methyl-2,3,4,5-tetrahydro-1H-benzo[d]azepin-7-amine] | 200 to 400 |
